Measurements reported in publication PMC11435625, “In Vitro Hepatic Clearance Evaluations of Per- and Polyfluoroalkyl Substances (PFAS) across Multiple Structural Categories” (Toxics, 2024).

Legend:
[1] = system: pooled primary human hepatocyte suspensions; assay: Hepatic clearance assay (substrate depletion, LC-MS); details: in µL/min/10^6 cells; for Unadj Clint: unadjusted hepatic intrinsic clearance, Table S4; for Unadj Clint / in vitro CLint exp assay: pooled primary human hepatocyte suspensions; for CLint for HTTK: CLint value carried into HTTK/IVIVE
Method: The rate of hepatic clearance was determined as previously described for a set of PFAS [11]. Analysis was conducted across two laboratories at the Division of Translational Toxicology (DTT) at the National Institute of Environmental Health Sciences (NIEHS) and the Center for Computational Toxicology and Exposure at the USEPA. The PFAS analyzed in each lab can be found in the Supplementary Materials.
The hepatic clearance assay was performed at both the DTT and EPA laboratories as described below. The pooled human hepatocyte suspensions used in this work were purchased commercially and meet the ethical and scientific standards described in the Human Ethics Rule (40 CFR 26). The suspensions were prepared from hepatocytes obtained from de-identified donors by a commercial vendor.
PFAS stock solutions prepared in DMSO were added to prewarmed William’s E medium to make a 2X working stock solution (2 µM). […] The working stock solutions were then transferred to a 96-well polypropylene plate and placed in an incubator at 37 °C with 5% carbon dioxide prior to adding cells. Cryopreserved pooled primary human hepatocyte suspensions (50-donor pool, mixed gender; BioIVT; Westbury, NY, USA) were thawed and transferred to vials containing hepatocyte thawing medium. After centrifuging for 5–10 min at 100× g, thawing medium was removed, being careful not to disturb the cell pellet. The primary human hepatocytes were then resuspended in pre-warmed complete Williams E medium to achieve a cell density of ~1.0 × 10^6 viable cells/mL as determined by Trypan Blue exclusion. Cells were then added to the 96-well incubation plates containing PFAS to achieve a final density of ~0.5 × 10^6 viable cells/mL and a 1 μM assay concentration (Ctest), then placed in incubator on a shaker at 300 rpm. Triplicate samples were removed from the incubator at time points ranging from 0 to 240 min and quenched with a total crash in 2–3 volumes of ice-cold acetonitrile. Samples were spun at 4000× g for 20 min, and supernatants were transferred to new tubes and stored at <−70 °C until analysis. Media-only (no cell) and/or heat-inactivated hepatocytes were included as negative controls for each chemical to evaluate and estimate chemical loss due to nonmetabolic processes (e.g., hydrolysis). Phenacetin was included in all runs as an assay reference compound; EPA also included propranolol as an additional reference compound.
Assay samples were diluted in mobile phase and analyzed using a Thermo Vanquish UPLC system with a Thermo Hypersil Gold aQ C18 column (100 × 2.1 mm, 1.9 […], Thermo Fisher Scientific Inc.) coupled to a Q Exactive Plus mass spectrometer. Gradient elution was used in the chromatographic separations using water with 20 mM ammonium acetate (mobile phase A) and methanol (mobile phase B), with the following gradient program: 0.5–7 min, 30%–90% B; 7–8 min, 90% B; 8–9 min, 90%–30% B; and 9–10 min, 30% B. The first minute of each injection was diverted to waste to avoid introduction of excessive salts from incubation medium. Analysis was detected in negative ion mode. Samples were quantified against an external, matrix-matched calibration curve. Additional methodologic information is available in Table S2.
To perform SPE, a positive-pressure manifold was employed along with Oasis WAX µElution plates and Oasis HLB 30 mg plates (Waters, Milford, MA, USA) for PFAS and positive-control extraction, respectively. […] The sorbent was then washed with 1% formic acid and water. Samples were eluted in 2% ammonia in methanol for analysis. Similarly, HLB plates were conditioned with methanol and water before sample was loaded onto the sorbent. The wells were then washed with 5% methanol in water and water before elution in methanol. For samples not undergoing SPE, the supernatant of the crashed assay sample was diluted in mobile phase prior to analysis. The first 1.5 min of the run was diverted to waste to prevent salt contamination.

[2] = system: pooled primary human hepatocyte suspensions; assay: Bayesian (MCMC, invitroTKstats) analysis of hepatic clearance data; details: for Clint.1.Med: Level-4 Bayesian estimate, posterior median, Clint.1 series (Clint.10 all NA)
Text: Markov Chain Monte Carlo was employed in a Bayesian analysis to estimate uncertainty of the hepatic clearance point measures as previously described, but with some modifications [10]. Briefly, after organizing PFAS-level data into a single file, the relationship between the relevant measurement process parameters was described in a graphic model in JAGS language [13] interfaced through R. For hepatic clearance data, the model describes the PFAS-specific mass spectrometric response factor between analyte peak ratio (to internal standard) and chemical concentration. […] The assumed prior for whether the chemical degraded abiotically in vitro followed a Bernoulli distribution with a 5% chance of abiotic degradation. Separate biotic and abiotic components for chemical elimination were estimated, each with a slope following an assumed uniform prior distribution bounded between the zero and the -log (limit of quantitation/Ctest). In scenarios where an external calibration without internal standard was used, the response factor was calculated using the analyte peak alone, introducing additional uncertainty due to the inability to normalize for recovery issues. The model was analyzed jointly by JAGS using five Markov chains. Convergence was identified by requiring the five chains to be consistent, as indicated by the potential scale reduction factor [14] being less than 1.1. The analysis was performed using EPA-developed R package invitroTKstats, available upon request.

[3] = IVIVE: steady-state concentration (Css), generic HTTK model; design: species or system human; details: for Css (mg/L) / Css (uM): Assuming 1 mg/kg/day dose rate, BW 70 kg; for CLhep: QL 1500000 uL/min; for Fub: fub=fup/(B:P), Fub set to 1 if needed; for CLint: scaled to whole liver: HPGL 110 mill cells/g, Vl 1596 g
Method: IVIVE was performed as previously described to calculate human steady-state concentrations (Css). Briefly, experimental plasma protein binding data presented elsewhere were transformed to fraction unbound in blood using blood-to-plasma partitioning values. Experimental Clint values generated here are used in conjunction with relevant liver scalars to scale up to estimate whole liver clearance. […] Once Css values were established, these were used with the PFAS-specific in vitro POD data to calculate the administered equivalent doses (AEDs) using reverse dosimetry. […] The fifth-percentile AC50 value was used to define the in vitro POD. All relevant inputs, scalars, and calculations are provided in Supplementary Information, as indicated in the results.

plasma protein = details: fraction unbound in plasma, input for IVIVE calculations; cited from earlier work

## O=C(Cl)C(F)(F)C(F)(F)C(F)(F)C(F)(F)C(F)(F)C(F)(F)C(F)(F)F [Pentadecafluorooctanoyl chloride]
[1]
  Unadj Clint: 0.00
[2]
  Clint.1.Med: 0

## O=C(O)C(F)(F)C(F)(F)C(F)(F)C(F)(F)C(F)(F)C(F)(F)C(F)(F)C(F)(F)C(F)(F)F [Perfluorodecanoic acid (PFDA)]
[1]
  CLint for HTTK: 0
  in vitro CLint exp assay: 0
[3]
  Css (mg/L): 89.39 mg/L
  Css (uM): 173.91 µM
  CLhep: 0.000 L/h
  Fub: 0.004909
  CLint: 0 µL/min
Plasma protein
  Mean fu: 0.0027
[2]
  Clint.1.Med: 0

## O=C(O)C(F)(F)C(F)(F)F [Perfluoropropanoic_acid]
[2]
  Clint.1.Med: 0

## NS(=O)(=O)C(F)(F)C(F)(F)C(F)(F)C(F)(F)C(F)(F)C(F)(F)F [Perfluorohexanesulfonamide]
[1]
  Unadj Clint: 0.00
[2]
  Clint.1.Med: 0

## O=C(O)C(F)(F)C(F)(F)C(F)(F)C(F)(F)C(F)(F)C(F)(F)C(F)(F)C(F)F [9-H-Perfluorononanoic acid (9H-PFNA)]
[1]
  CLint for HTTK: 0
  in vitro CLint exp assay: 0
[3]
  Css (mg/L): 268.16 mg/L
  Css (uM): 601.28 µM
  CLhep: 0.000 L/h
  Fub: 0.001636
  CLint: 0 µL/min
Plasma protein
  Mean fu: 0.0009
[2]
  Clint.1.Med: 0

## O=S(=O)([O-])C(F)(F)C(F)(F)C(F)(F)C(F)(F)C(F)(F)C(F)(F)F.[K+] [Potassium perfluorohexanesulfonate]
[1]
  Unadj Clint: 0.00
[2]
  Clint.1.Med: 0

## O=C(O)C(F)(F)C(F)(F)C(F)(F)C(F)(F)C(F)(F)C(F)(F)C(F)(F)C(F)(F)C(F)(F)C(F)F
[1]
  CLint for HTTK: 0
  in vitro CLint exp assay: 0
[3]
  Css (mg/L): 160.90 mg/L
  Css (uM): 294.69 µM
  CLhep: 0.000 L/h
  Fub: 0.002727
  CLint: 0 µL/min
Plasma protein
  Mean fu: 0.0015
[2]
  Clint.1.Med: 0

## O=C(O)C(F)(F)C(F)(F)C(F)(F)C(F)(F)C(F)(F)C(F)(F)C(F)(F)F [Perfluorooctanoic_acid]
[2]
  Clint.1.Med: 0

## O=C(O)C(F)(F)OC(F)(F)C(F)(F)OC(F)(F)C(F)(F)C(F)(F)C(F)(F)F [Perfluoro-3,6-dioxadecanoic acid]
[1]
  CLint for HTTK: 0
  in vitro CLint exp assay: 0
  Unadj Clint: 0.00
[3]
  Css (mg/L): 344.78 mg/L
  Css (uM): 773.10 µM
  CLhep: 0.000 L/h
  Fub: 0.001273
  CLint: 0 µL/min
Plasma protein
  Mean fu: 0.0007
[2]
  Clint.1.Med: 0

## O=C(O)C(F)(F)C(F)(F)C(F)(F)C(F)(F)F [Perfluoropentanoic_acid]
[2]
  Clint.1.Med: 0

## O=C(O)C=C(C(F)(F)F)C(F)(F)F [3,3-Bis(trifluoromethyl)-2-propenoic acid]
[1]
  Unadj Clint: 1.82
[2]
  Clint.1.Med: 0

## O=C(O)CCC(F)(F)C(F)(F)C(F)(F)F [3:3 Fluorotelomer carboxylic acid]
[1]
  Unadj Clint: 0.00
[2]
  Clint.1.Med: 0

## O=S(=O)(O)C(F)(F)C(F)(F)C(F)(F)C(F)(F)C(F)(F)C(F)(F)F [Perfluorohexanesulfonic_acid]
[2]
  Clint.1.Med: 0

## O=S(=O)(OCC(F)(F)F)C(F)(F)C(F)(F)C(F)(F)C(F)(F)F
[2]
  Clint.1.Med: 0

## O=S(=O)([O-])C(F)(F)C(F)(F)C(F)(F)C(F)(F)C(F)(F)C(F)(F)C(F)(F)C(F)(F)C(F)(F)C(F)(F)F.[Na+] [Sodium_perfluorodecanesulfonate]
[2]
  Clint.1.Med: 4.87

## O=S(=O)(O)C(F)(F)C(F)(F)C(F)(F)C(F)(F)C(F)(F)C(F)(F)C(F)(F)F [Perfluoroheptanesulfonic_acid]
[2]
  Clint.1.Med: 0

## O=C(O)C(F)(F)C(F)(F)C(F)F [4H-Perfluorobutanoic_acid]
[2]
  Clint.1.Med: 0

## O=C(Cl)C(F)(F)C(F)(F)C(F)(F)C(F)(F)C(F)(F)C(F)(F)F [Perfluoroheptanoyl chloride]
[1]
  Unadj Clint: 0.00
[2]
  Clint.1.Med: 0

## N.O=C(O)C(F)(F)C(F)(F)C(F)(F)C(F)(F)C(F)(F)C(F)(F)C(F)(F)F [Ammonium_perfluorooctanoate]
[2]
  Clint.1.Med: 10.8

## O=S(=O)([O-])C(F)(F)C(F)(F)C(F)(F)C(F)(F)C(F)(F)C(F)(F)C(F)(F)C(F)(F)F.[K+] [Potassium_perfluorooctanesulfonate]
[2]
  Clint.1.Med: 0

## CNS(=O)(=O)C(F)(F)C(F)(F)C(F)(F)C(F)(F)C(F)(F)C(F)(F)C(F)(F)C(F)(F)F [N-Methylperfluorooctanesulfonamide]
[1]
  Unadj Clint: 33.23
[2]; both analyses agreed
  metabolic clearance call, experimental and Bayesian analyses in agreement: metabolized

## O=S(=O)(O)C(F)(F)C(F)(F)C(F)(F)C(F)(F)C(F)(F)C(F)(F)C(F)(F)C(F)(F)F [Perfluorooctanesulfonate]
[1]
  Unadj Clint: 0.00
[2]
  Clint.1.Med: 0

## O=C(O)C(F)(F)C(F)(F)C(F)(F)C(F)(F)C(F)(F)C(F)(F)C(F)(F)C(F)(F)C(F)(F)C(F)(F)C(F)(F)C(F)(F)F [Perfluorotridecanoic_acid]
[2]
  Clint.1.Med: 0

## O=C(O)C(F)(F)C(F)(F)C(F)(F)OC(F)(C(F)(F)F)C(F)(F)F [Perfluoro-4-isopropoxybutanoic_acid]
[2]
  Clint.1.Med: 0

## O=C(O)C(F)(F)C(F)(F)C(F)(F)C(F)(F)C(F)(F)C(F)(F)C(F)(F)C(F)(F)F [Perfluorononanoic_acid]
[2]
  Clint.1.Med: 10.4

## O=C(O)C(F)(F)C(F)(F)OC(F)(F)F [Perfluoro-3-methoxypropanoic acid]
[1]
  Unadj Clint: 0.00
[2]
  Clint.1.Med: 0

## C[N+](C)(C)CCCNS(=O)(=O)C(F)(F)C(F)(F)C(F)(F)C(F)(F)C(F)(F)C(F)(F)C(F)(F)C(F)(F)F
[2]
  Clint.1.Med: 0

## O=C(O)C(F)(F)C(F)(F)C(F)(F)C(F)(F)C(F)(F)C(F)(F)C(F)(F)C(F)(F)C(F)(F)C(F)(F)C(F)(F)C(F)(F)C(F)(F)F [Perfluorotetradecanoic acid (PFTeDA)]
[2]
  Clint.1.Med: 0

## O=S(=O)(Cl)C(F)(F)C(F)(F)C(F)(F)C(F)(F)C(F)(F)C(F)(F)C(F)(F)C(F)(F)F [Perfluoro-1-octanesulfonyl_chloride]
[2]
  Clint.1.Med: 0

## CNS(=O)(=O)C(F)(F)C(F)(F)C(F)(F)C(F)(F)C(F)(F)C(F)(F)C(F)(F)C(F)(F)F
[2]
  Clint.1.Med: 48.7

## O=C(O)C(F)(F)C(F)(F)C(F)(F)OC(F)(F)F [Perfluoro(4-methoxybutanoic)_acid]
[2]
  Clint.1.Med: 0

## O=C(O)C(F)(F)C(F)(F)C(F)(F)C(F)(F)F [Perfluoropentanoic acid (PFPeA)]
[1]
  CLint for HTTK: 0
  in vitro CLint exp assay: 0
[3]
  Css (mg/L): 5.49 mg/L
  Css (uM): 20.78 µM
  CLhep: 0.000 L/h
  Fub: 0.08
  CLint: 0 µL/min
Plasma protein
  Mean fu: 0.044
